# Assay results taken from patent publication US20220184073A1, “USE OF A H3R INVERSE AGONIST FOR THE TREATMENT OF SHIFT WORK DISORDER” (Novartis AG, priority 2017, published 2022).
# Entries after “also recorded” stand apart in the source; their conditions may differ.
# What was measured:
# histamine in CSF = test: Histamine (HA) in CSF after single oral dose in healthy volunteers (LC-MS); format: in vivo, human; settings: for model adjusted geometric mean ratio to baseline of histamine in CSF: 100 mg single oral dose (free form); for Comparison of treatment vs placebo, Estimate (geometric ratio), histamine in CSF: 100 mg single oral dose vs placebo
# Procedure: (§1) A randomized, double-blind, placebo-controlled, parallel group, exploratory study of single oral doses of Compound (I) (free form) was conducted in healthy volunteers (HVs) to investigate the pharmacodynamic effect of Compound (I) on the release of neurotransmitters in the brain. A total of 16 subjects were enrolled into the study, which was part of a first-in-human (FIH) study.
# (§2) Subjects were randomized in a 1:1 ratio to receive either a single dose of Compound (I) or placebo.
# (§3) On study Day 1 in the afternoon (approximately at 16:00), the HVs underwent lumbar puncture and a spinal catheter was placed for repeated cerebrospinal fluid (CSF) sampling. The spinal catheter was placed under strict surgical aseptic conditions, as per best practice standards, by a board certified anesthesiologist. Two CSF samples were collected before administration of the study drug (Compound (I) or placebo). Study drug was administered in the evening (approximately at 18:00). Thereafter, 10 more CSF samples were collected during 16 hrs following drug administration. The exact timing of sampling (0.5, 1, 1.5, 2, 3, 4, 6, 8, 12 and 16 hr post dose). During the same period, blood samples were also collected for pharmacokinetic (PK) analysis. The subjects remained at bed rest during the CSF sampling procedure and for about 24 hr afterwards. The following safety precautions were taken: (1) proper hydration of the subjects was ensured; (2) the catheter insertion site was assessed on a regular basis for early signs of local infection or CSF leakage; (3) prophylactic interventions/treatments to reduce the risk of venous thrombosis was considered by the Investigator.
# (§4) The dose of Compound (I) (free form) administered to the subjects was 100 mg. Safety, tolerability and PK assessments were made up to 72 hr post dose. Subjects were allowed to leave the study center on Study Day 4 at the discretion of the Investigator, if there were no prohibitive safety findings. The subjects were asked to return to the study site for the study completion evaluation. Safety assessments included physical examinations, electrocardiograms (ECGs), vital signs, standard clinical laboratory evaluations (hematology, blood chemistry, and urinalysis), adverse events (AEs) and serious adverse events (SAEs) monitoring.
# (§5) Biomarkers related to pharmacodynamic (PD) effect of Compound (I) (e.g. histamine [HA], tele-methylhistamine [tMeHA]) were measured in the CSF using LC-MS method.
# LC-MS conditions for histamine (%=percent by volume): Acquity Binary Solvent Manager/Applied Biosystems API 5000; Mobile Phase A: acetonitrile, B: 10 mM ammonium formate pH3; Gradient: 10%A for 0.25 min, increase to 15%A within 0.25 min, increase to 25%A within 4 min, increase to 90%A within 0.10 min, 90%A for 0.9 min, back to 10%A within 0.10 min, 10%A for 2.40 min; Run time: 8 min; Flow rate: 0.35 mL/min; Analytical column: Acquity BEH C18, 150×2.1 mm, 1.7 μm; Temperature: 30° C. The desired compound histamine LC-MS: Rt=3.85 min, m/z 246 (M+H)^+
# (§6) The effect of Compound (I) on CSF biomarkers was assessed using mixed models for repeated measures (MMRM). These parameters were log transformed and analyzed using a model including treatment and timepoint, the treatment*timepoint interaction term, and log transformed baseline as fixed effects. An unstructured residual covariance matrix within subjects was considered as desirable, but an alternative covariance structure (autoregressive) was used due to a lack of fit. The mean difference versus placebo (and its 90% CI) was calculated at each dose level. These were back-transformed to give a geometric ratio (and its 90% CI) between each dose and placebo.
# Subjects: The study population comprised of male and female (of non-child bearing potential) healthy volunteers (HVs) 18-55 years of age. […] BMI=Body weight (kg)/[Height (m)]2. Subjects were able to communicate well with the Investigator, to understand and comply with the requirements of the study. […]
# [1] = tested on: tele-methylhistamine in CSF; test: tele-methylhistamine (tMeHA) in CSF after single oral dose in healthy volunteers (LC-MS); format: in vivo, human; settings: for model adjusted geometric mean ratio to baseline of tele-methylhistamine in CSF: 100 mg single oral dose (free form); for Comparison of treatment vs placebo, Estimate (geometric ratio), tele-methylhistamine in CSF: 100 mg single oral dose vs placebo
# Procedure: as §1, §2, §3, §4, §5
# LC-MS conditions for tele-methyl-histamine (%=percent by volume): Acquity Binary Solvent Manager/Applied Biosystems API 5000; Mobile Phase A: acetonitrile, B: 10 mM ammonium formate pH9; Gradient: 15%A for 0.25 min, increase to 25%A within 4.75 min, increase to 90%A within 0.10 min, 90%A for 0.50 min, back to 15%A within 0.10 min, 15%A for 0.60 min; Run time: 6.3 min; Flow rate: 0.65 mL/min; Analytical column: Acquity BEH C18, 150×2.1 mm, 1.7 μm; Temperature: 70° C. The desired compound tele-methyl-histamine LC-MS: Rt=4.66 min, m/z 260 (M+H)^+
# Compound (I) can induce histamine release in a subject and thereby promote wakefulness. The tMeHA is the direct breakdown product of HA and can thus be used as a marker for HA release. In animals, the half-life of HA is about 20 minutes. Therefore HA is not an ideal mechanistic PD marker for Compound (I). due to its short half-life. […] Due to its slower breakdown, tMeHA was expected to be a more useful PD marker of Compound (I) activity than HA itself.
# as §6, with “The mean difference versus placebo (and its 90% CI) was calculated at each dose level. These were back-transformed to give a geometric ratio (and its 90% CI) between each dose and placebo.” left out
# [2] = SWD patients; N. Engl. J. Med., 2005, 353, 476-486; cited from earlier work
# [3] = healthy volunteers, 0.5 hr post-dose
# [4] = healthy volunteers, 1.0 hr post-dose
# [5] = healthy volunteers, 1.5 hr post-dose
# [6] = healthy volunteers, 2.0 hr post-dose
# [7] = healthy volunteers, 3.0 hr post-dose
# [8] = healthy volunteers, 4.0 hr post-dose
# [9] = healthy volunteers, 6.0 hr post-dose
# [10] = healthy volunteers, 8.0 hr post-dose
# [11] = healthy volunteers, 12.0 hr post-dose
# [12] = healthy volunteers, 16.0 hr post-dose
compound,measurement,setting,value
"Cn1nc(N2CCC(OC(=O)N3CCN(C4CCC4)CC3)CC2)ccc1=O [Compound (I), 1-(1-methyl-6-oxo-1,6-dihydropyridazin-3-yl)piperidin-4-yl 4-cyclobutylpiperazine-1-carboxylate]",model adjusted geometric mean ratio to baseline of histamine in CSF,histamine in CSF; 0.5 hr post-dose,1.27
same,model adjusted geometric mean ratio to baseline of histamine in CSF,histamine in CSF; 1.0 hr post-dose,1.09
same,model adjusted geometric mean ratio to baseline of histamine in CSF,histamine in CSF; 1.5 hr post-dose,0.95
same,model adjusted geometric mean ratio to baseline of histamine in CSF,histamine in CSF; 2.0 hr post-dose,1.02
same,model adjusted geometric mean ratio to baseline of histamine in CSF,histamine in CSF; 3.0 hr post-dose,1.01
same,model adjusted geometric mean ratio to baseline of histamine in CSF,histamine in CSF; 4.0 hr post-dose,0.73
same,model adjusted geometric mean ratio to baseline of histamine in CSF,histamine in CSF; 6.0 hr post-dose,0.63
same,model adjusted geometric mean ratio to baseline of histamine in CSF,histamine in CSF; 8.0 hr post-dose,0.83
same,model adjusted geometric mean ratio to baseline of histamine in CSF,histamine in CSF; 12.0 hr post-dose,0.84
same,model adjusted geometric mean ratio to baseline of histamine in CSF,histamine in CSF; 16.0 hr post-dose,0.92
same,"Comparison of treatment vs placebo, Estimate (geometric ratio), histamine in CSF",histamine in CSF; 0.5 hr post-dose,1.16
same,"Comparison of treatment vs placebo, Estimate (geometric ratio), histamine in CSF",histamine in CSF; 1.0 hr post-dose,0.96
same,"Comparison of treatment vs placebo, Estimate (geometric ratio), histamine in CSF",histamine in CSF; 1.5 hr post-dose,0.97
same,"Comparison of treatment vs placebo, Estimate (geometric ratio), histamine in CSF",histamine in CSF; 2.0 hr post-dose,0.99
same,"Comparison of treatment vs placebo, Estimate (geometric ratio), histamine in CSF",histamine in CSF; 3.0 hr post-dose,1.15
same,"Comparison of treatment vs placebo, Estimate (geometric ratio), histamine in CSF",histamine in CSF; 4.0 hr post-dose,0.79
same,"Comparison of treatment vs placebo, Estimate (geometric ratio), histamine in CSF",histamine in CSF; 6.0 hr post-dose,0.64
same,"Comparison of treatment vs placebo, Estimate (geometric ratio), histamine in CSF",histamine in CSF; 8.0 hr post-dose,1.14
same,"Comparison of treatment vs placebo, Estimate (geometric ratio), histamine in CSF",histamine in CSF; 12.0 hr post-dose,1.14
same,"Comparison of treatment vs placebo, Estimate (geometric ratio), histamine in CSF",histamine in CSF; 16.0 hr post-dose,0.82
same,"mean CSF HA levels, treatment vs placebo (in words)","histamine in CSF; free form, 100 mg, single dose, 16 hrs observation",No clear trend of a difference; also recorded: No treatment response was detected
same,between group difference in CSF tMeHA (statistical significance),[1]; at 1.5 hrs post dose and at all subsequent sampling points,statistically significant
same,time for which mean CSF tMeHA level was increased compared to baseline,"[1]; healthy volunteers, 100 mg single oral dose",about 10 hrs
same,model adjusted geometric mean ratio to baseline of tele-methylhistamine in CSF,[1]; [3],1.01
same,model adjusted geometric mean ratio to baseline of tele-methylhistamine in CSF,[1]; [4],1.17
same,model adjusted geometric mean ratio to baseline of tele-methylhistamine in CSF,[1]; [5],1.30
same,model adjusted geometric mean ratio to baseline of tele-methylhistamine in CSF,[1]; [6],1.73
same,model adjusted geometric mean ratio to baseline of tele-methylhistamine in CSF,[1]; [7],1.64
same,model adjusted geometric mean ratio to baseline of tele-methylhistamine in CSF,[1]; [8],1.21
same,model adjusted geometric mean ratio to baseline of tele-methylhistamine in CSF,[1]; [9],1.59
same,model adjusted geometric mean ratio to baseline of tele-methylhistamine in CSF,[1]; [10],1.20
same,model adjusted geometric mean ratio to baseline of tele-methylhistamine in CSF,[1]; [11],0.79
same,model adjusted geometric mean ratio to baseline of tele-methylhistamine in CSF,[1]; [12],1.04
same,"Comparison of treatment vs placebo, Estimate (geometric ratio), tele-methylhistamine in CSF",[1]; [3],1.02
same,"Comparison of treatment vs placebo, Estimate (geometric ratio), tele-methylhistamine in CSF",[1]; [4],1.10
same,"Comparison of treatment vs placebo, Estimate (geometric ratio), tele-methylhistamine in CSF",[1]; [5],1.39
same,"Comparison of treatment vs placebo, Estimate (geometric ratio), tele-methylhistamine in CSF",[1]; [6],1.77
same,"Comparison of treatment vs placebo, Estimate (geometric ratio), tele-methylhistamine in CSF",[1]; [7],1.88
same,"Comparison of treatment vs placebo, Estimate (geometric ratio), tele-methylhistamine in CSF",[1]; [8],1.63
same,"Comparison of treatment vs placebo, Estimate (geometric ratio), tele-methylhistamine in CSF",[1]; [9],1.85
same,"Comparison of treatment vs placebo, Estimate (geometric ratio), tele-methylhistamine in CSF",[1]; [10],2.14
same,"Comparison of treatment vs placebo, Estimate (geometric ratio), tele-methylhistamine in CSF",[1]; [11],2.45
same,"Comparison of treatment vs placebo, Estimate (geometric ratio), tele-methylhistamine in CSF",[1]; [12],1.57
same,"mean tMeHA level in CSF / ratio to baseline, treatment vs placebo (in words)","[1]; healthy volunteers, 100 mg single oral dose, entire observation period",higher; also recorded: robust increase
"NC(=O)C[S+]([O-])C(c1ccccc1)c1ccccc1 (stereo not drawn) [modafinil, 2-(benzhydrylsulfinyl)acetamide]",mean sleep latency (MSLT),[2],modest but statistically significant improvement
